Earlier results, collected in patent US12383538B2, “Use of mTOR inhibitors for prevention of intestinal polyp growth and cancer” (priority 2013, dated 2025).

System: colorectal adenomas
Conditions: adults with FAP, 6-month trial

Cc1ccc(-c2cc(C(F)(F)F)nn2-c2ccc(S(N)(=O)=O)cc2)cc1 [celecoxib]
tolerability: well tolerated
